Laboratory results reported in patent publication US20240390350A1, “PHENYL CORE COMPOUNDS AS MGLU5 NEGATIVE ALLOSTERIC MODULATORS AND METHODS OF MAKING AND USING THE SAME” (Vanderbilt University, priority 2021, published 2024).
pIC50: −log10 of the molar value.

The compounds below were run against T1, human mGlu5 (Homo sapiens, UniProt P41594) (assay: mGlu5 negative allosteric modulator Ca2+ flux assay in HEK 293A cells (Table 1)). Settings: HEK 293A cells stably expressing mGlu5; Ca2+ flux (Fluo-4); decrease of glutamate EC80 response; read-out: hmGlu5 NAM IC50.
T1 construct: expressed in transfected cells; host or cells: HEK 293A
T1 sequence (P41594 21-1212): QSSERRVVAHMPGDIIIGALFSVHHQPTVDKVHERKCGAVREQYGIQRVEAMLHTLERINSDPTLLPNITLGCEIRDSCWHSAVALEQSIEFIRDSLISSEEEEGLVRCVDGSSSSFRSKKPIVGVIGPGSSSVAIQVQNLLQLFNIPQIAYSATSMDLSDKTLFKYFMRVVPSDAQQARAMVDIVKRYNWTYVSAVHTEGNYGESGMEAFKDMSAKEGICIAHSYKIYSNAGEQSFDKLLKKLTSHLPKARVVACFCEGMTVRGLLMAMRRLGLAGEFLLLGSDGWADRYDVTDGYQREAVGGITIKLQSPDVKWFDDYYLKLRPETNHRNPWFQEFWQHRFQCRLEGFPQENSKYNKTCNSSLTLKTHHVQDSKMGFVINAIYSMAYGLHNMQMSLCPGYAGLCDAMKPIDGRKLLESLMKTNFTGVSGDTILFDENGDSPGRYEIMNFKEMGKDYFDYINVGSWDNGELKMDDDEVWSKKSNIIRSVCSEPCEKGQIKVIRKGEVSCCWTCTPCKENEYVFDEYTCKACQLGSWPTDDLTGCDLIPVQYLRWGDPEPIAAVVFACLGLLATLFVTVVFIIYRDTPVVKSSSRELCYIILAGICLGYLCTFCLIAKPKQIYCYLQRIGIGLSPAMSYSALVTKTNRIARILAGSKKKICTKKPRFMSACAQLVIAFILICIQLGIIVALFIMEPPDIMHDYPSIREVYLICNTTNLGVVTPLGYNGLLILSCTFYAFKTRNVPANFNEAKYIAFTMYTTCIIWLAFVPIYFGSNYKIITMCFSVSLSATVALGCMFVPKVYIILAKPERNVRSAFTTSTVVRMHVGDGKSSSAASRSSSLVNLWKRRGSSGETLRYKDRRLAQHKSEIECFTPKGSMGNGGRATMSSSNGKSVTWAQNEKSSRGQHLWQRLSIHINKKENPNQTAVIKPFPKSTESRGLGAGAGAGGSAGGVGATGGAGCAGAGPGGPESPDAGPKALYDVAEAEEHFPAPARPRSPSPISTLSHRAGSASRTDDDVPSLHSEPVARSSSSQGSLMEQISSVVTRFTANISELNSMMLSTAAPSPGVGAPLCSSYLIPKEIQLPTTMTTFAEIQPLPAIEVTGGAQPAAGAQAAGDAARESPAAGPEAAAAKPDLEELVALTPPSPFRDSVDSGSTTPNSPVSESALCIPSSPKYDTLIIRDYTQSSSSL
Type: cell-based

Point of comparison: `Cc1ccncc1-c1cc(C(=O)Nc2ccccn2)cc(F)c1F` [Compound 49, 3,4-difluoro-5-(4-methylpyridin-3-yl)-N-(pyridin-2-yl)benzamide], pIC50 6.39. Against it:
- Cc1ccncc1-c1cc(C(=O)Nc2cccc(Cl)n2)cc(F)c1F [Compound 50, N-(6-chloropyridin-2-yl)-3,4-difluoro-5-(4-methylpyridin-3-yl)benzamide] — 0.71 log units higher, 7.10
- Cc1cccc(NC(=O)c2cc(F)c(F)c(-c3ccnn3C)c2)n1 [Compound 43, 3,4-difluoro-5-(1-methyl-1H-pyrazol-5-yl)-N-(6-methylpyridin-2-yl)benzamide] — 1.04 log units lower, 5.35
- Cc1ccncc1-c1cc(Cl)cc(C(=O)Nc2ccccn2)c1 [Compound 15, 3-chloro-5-(4-methylpyridin-3-yl)-N-(pyridin-2-yl)benzamide] — within 0.2 log units, 6.48
